Paper PMC6539231, “4,5-Diaryl 3(2H)Furanones: Anti-Inflammatory Activity and Influence on Cancer Growth” (Molecules, 2019)
Entries after “also recorded” stand apart in the source; their conditions may differ. Read-outs that look alike come from different tables or passages of the source. Blank lines part the entries; values can stand above or below the compound they belong to.

Legend:
ovine COX-1 = molecular target: T1, ovine COX-1 (Ovis aries, UniProt P05979); assay: In vitro COX-1 inhibition (Cayman COX Inhibitor Screening Assay kit); assay type: biochemical; details: for % Inhibition (COX-1): Compound concentration 50 μΜ, arachidonic acid 0.1 μM; for IC50: read-out: Experimental IC50 COX-1
T1 construct: purchased Cayman Chemical Co., Ann Arbor, MI, USA
T1 sequence (P05979 25-600): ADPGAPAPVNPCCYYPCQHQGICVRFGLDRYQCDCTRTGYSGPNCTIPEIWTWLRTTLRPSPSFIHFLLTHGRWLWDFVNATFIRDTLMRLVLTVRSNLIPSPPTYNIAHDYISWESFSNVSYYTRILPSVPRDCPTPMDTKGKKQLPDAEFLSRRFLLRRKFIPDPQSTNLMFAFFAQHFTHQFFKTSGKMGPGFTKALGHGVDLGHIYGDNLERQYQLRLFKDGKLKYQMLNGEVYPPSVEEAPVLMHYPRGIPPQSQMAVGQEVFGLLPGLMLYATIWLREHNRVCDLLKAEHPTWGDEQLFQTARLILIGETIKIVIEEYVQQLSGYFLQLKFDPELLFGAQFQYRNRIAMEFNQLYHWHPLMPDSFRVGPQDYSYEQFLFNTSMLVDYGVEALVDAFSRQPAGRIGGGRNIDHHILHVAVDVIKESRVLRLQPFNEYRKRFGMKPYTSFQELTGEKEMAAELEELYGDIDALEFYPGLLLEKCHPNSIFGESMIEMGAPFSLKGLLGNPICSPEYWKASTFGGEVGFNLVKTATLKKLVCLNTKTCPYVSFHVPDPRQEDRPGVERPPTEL
Experimental: (§1) The COX-1 and COX-2 activities of the compounds were measured using ovine COX-1 and human recombinant COX-2 enzymes included in the “COX Inhibitor Screening Assay” kit provided by Cayman (Cayman Chemical Co., Ann Arbor, MI, USA) as reported previously

human recombinant COX-2 = molecular target: T2, human recombinant COX-2 (Homo sapiens, UniProt P35354); assay: In vitro COX-2 inhibition (Cayman COX Inhibitor Screening Assay kit); assay type: biochemical; details: for % Inhibition (COX-2): Compound concentration 50 μΜ, arachidonic acid 0.1 μM; for IC50: read-out: Experimental IC50 COX-2
T2 construct: purchased Cayman Chemical Co., Ann Arbor, MI, USA
T2 sequence (P35354 18-604): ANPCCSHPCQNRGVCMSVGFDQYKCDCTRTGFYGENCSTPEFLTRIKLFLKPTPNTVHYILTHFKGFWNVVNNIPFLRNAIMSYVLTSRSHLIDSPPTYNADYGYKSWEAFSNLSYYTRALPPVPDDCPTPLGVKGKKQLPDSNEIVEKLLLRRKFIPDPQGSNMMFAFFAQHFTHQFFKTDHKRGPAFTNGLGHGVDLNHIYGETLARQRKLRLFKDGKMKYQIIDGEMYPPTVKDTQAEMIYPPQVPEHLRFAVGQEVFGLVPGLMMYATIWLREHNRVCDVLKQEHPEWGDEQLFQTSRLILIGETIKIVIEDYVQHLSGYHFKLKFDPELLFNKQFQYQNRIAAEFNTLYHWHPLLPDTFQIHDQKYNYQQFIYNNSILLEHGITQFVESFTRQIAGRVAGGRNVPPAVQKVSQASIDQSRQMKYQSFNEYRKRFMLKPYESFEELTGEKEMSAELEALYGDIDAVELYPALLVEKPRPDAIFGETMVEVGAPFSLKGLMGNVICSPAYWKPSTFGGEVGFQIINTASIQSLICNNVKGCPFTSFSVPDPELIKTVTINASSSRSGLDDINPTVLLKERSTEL
Experimental: as §1

[1] = tested on: carrageenan mice paw oedema; assay: Carrageenin-induced mouse paw edema; assay type: in vivo, mice (AKR); details: for inhibition in vivo at 0.1 µmol/g: Mus musculus, ip, read-out: CPE, %; for anti-inflammatory activity, reference compounds: dose not given
Experimental: From the data of Table 7 it is obvious that anti-inflammatory activity of alkylsulfones and sulfoxides of furan-3(2H)-ones, including annelated derivatives are very similar.
The anti-inflammatory activity of compounds was performed using the carrageenan mice paw oedema assay. Animal of both sex (AKR), with exception of pregnant females were housed under standard conditions, receiving only water during the experimental period. […] The detailed description of the whole experiment reported previously. All the biological experiments were carried out in full compliance with the European Convention for the Protection of Vertebrate Animals used for Experimental or Other Scientific Purposes (ETS NO 123, Strasbourg, 03/18/1986): Strasbourg (France). European Treaty Series, № 123, March 18, 1986. 11 P. The project identification code and date of approval is 350880/3468 of 15-12-2014, University of Thessaloniki.

MCF-7 cells [2] = assay: Growth inhibition assay, MCF-7 cells; assay type: cell-based, human; details: 48 h exposure
MCF-7 cells [3] = assay: Combination (synergy) growth assay in MCF-7 cells, Combination Index; assay type: cell-based, human; details: MCF-7, 48 h; for Combination Effect with 5-fluorouracil / CI, combination with 5-fluorouracil: + 0.3 μM 5-fu; for % Cell Growth, combination with 5-fluorouracil: + 0.3 μM 5-fu (21.3 μM 1h, 2.9 μM 1g, 3.8 μM x-1, 29 μM cel); for CI, combination with 5-fluorouracil / CI, combination with gefitinib: CI <1 synergy, >1 antagonism; for Combination Effect with gefitinib / CI, combination with gefitinib: + 70 μM gef; for % Cell Growth, combination with gefitinib: + 70 μM gef (27.5 μM 1h, 10 μM 1g, 10 μM x-1, 29 μM cel)
Experimental: In addition, exposure of the MCF-7 cells to each of the compounds in combination with each one of the two anti-neoplastic drugs was performed in order to study the synergistic effect of the compounds. The results are shown in Table 9 and Figure 5 and Figure 6.

MCF-7 cells [4] = assay: as above; assay type: cell-based, human; details: MCF-7, 48 h
HSC-3 cells = assay: Growth inhibition assay, HSC-3 cells
[5] = Dose 0.1 µmol/g, intraperitoneally, simultaneously with carrageenin

Compound: CC1(C)OC(c2ccccc2)=C(c2ccc(S(C)(=O)=O)cc2)C1=O [1c, 2,2-Dimethyl-4-[4′-(methylsulfonyl)phenyl]-5-phenylfuran-3(2H)-one]
% Inhibition (COX-1) (ovine COX-1): 0% | % Inhibition (COX-2) (human recombinant COX-2): 0% | inhibition in vivo at 0.1 µmol/g [1, 5]: 50.2%

Compound: Cc1ccc(-c2cc(C(F)(F)F)nn2-c2ccc(S(N)(=O)=O)cc2)cc1 [Celecoxib, reference compound]
IC50 (MCF-7 cells [2]): 29.2 µM | IC50 (MCF-7 cells [2]; Homo sapiens, MCF7, 48 h): 29.2 µM | Combination Effect with 5-fluorouracil (MCF-7 cells [3]): antagonism | % Cell Growth, combination with 5-fluorouracil (MCF-7 cells [3]): 49.3% | CI, combination with 5-fluorouracil (MCF-7 cells [3]): 1.57 | CI, combination with 5-fluorouracil (MCF-7 cells [3]; listed as cel): >1 | Combination Effect with gefitinib (MCF-7 cells [3]): antagonism | % Cell Growth, combination with gefitinib (MCF-7 cells [3]): 56.8% | CI, combination with gefitinib (MCF-7 cells [3]): 9.8 | CI, combination with gefitinib (MCF-7 cells [3]; listed as cel): >1 | anti-inflammatory activity, reference compounds [1]: 64.6%

Compound: C[S+]([O-])c1ccc(C2=C(c3cccc(Cl)c3)OC(C)(C)C2=O)cc1 (stereo not drawn) [1n, 5-(3′-Chlorophenyl)-2,2-dimethyl-4-[4′-(methylsulfinyl)phenyl]-furan-3(2H)-one]
inhibition in vivo at 0.1 µmol/g [1, 5]: 51%

Compound: CC1(C)OC(c2ccc(S(C)(=O)=O)cc2)=C(c2cccc(Cl)c2)C1=O [E-3, reference compound]
inhibition in vivo at 0.1 µmol/g [1, 5]: 52.1%

Compound: COc1ccc2cc([C@H](C)C(=O)O)ccc2c1 [Naproxen, reference compound]
IC50 (human recombinant COX-2): 50 µM

Compound: CC1(C)Oc2c(c3ccc(S(C)(=O)=O)cc3c3ccccc23)C1=O [x-1, 2′,2′-dimethyl-3-(methylsulfonyl)-phenanthro[9,10-b]furan-3′(2′H)-one]
IC50 (MCF-7 cells [2]; Homo sapiens, MCF7, 48 h): 10 µM | Combination Effect with 5-fluorouracil (MCF-7 cells [3]): antagonistic effect; also recorded: antagonism | % Cell Growth, combination with 5-fluorouracil (MCF-7 cells [3]): 21.0% | CI, combination with 5-fluorouracil (MCF-7 cells [3]): >1 | Combination Effect with gefitinib (MCF-7 cells [3]): synergism | % Cell Growth, combination with gefitinib (MCF-7 cells [3]): 24.3% | CI, combination with gefitinib (MCF-7 cells [3]): 0.260 ± 0.033 < 1 | CI, combination with gefitinib (MCF-7 cells [3]; listed as X-1): 0.260 | inhibition in vivo at 0.1 µmol/g [1]: 45% | Combination Effect with celecoxib (MCF-7 cells [4]; + 29 μM cel): antagonism | % Cell Growth, combination with celecoxib (MCF-7 cells [4]; + 29 μM cel (21.3 μM 1h, 2.9 μM 1g, 3.8 μM x-1)): 60.6% | CI, combination with celecoxib (MCF-7 cells [4]; + 29 μM cel, CI <1 synergy, >1 antagonism): >1 | HSC-3 % Cell Growth (HSC-3 cells; Compound concentration: 10μΜ): 91 ± 10% | IC50 (HSC-3 cells; Homo sapiens, HSC-3, 48 h, read-out: HSC-3 IC50 Values): 60 µM | melting point: 222 to 224 °C

Compound: COc1ccc2c(c1)c(CC(=O)O)c(C)n2C(=O)c1ccc(Cl)cc1 [indomethacin, reference compound]
anti-inflammatory activity, reference compounds [1]: 47%

Compound: C[S+]([O-])c1ccc(C2=C(c3ccccc3)OC(C)(C)C2=O)cc1 (stereo not drawn) [1b, 2,2-Dimethyl-4-[4′-(methylsulfinyl)phenyl]-5-phenylfuran-3(2H)-one]
inhibition in vivo at 0.1 µmol/g [1, 5]: 47%

Compound: C[S+]([O-])c1ccc(C2=C(c3ccc(Cl)cc3)OC(C)(C)C2=O)cc1 (stereo not drawn) [1j]
% Inhibition (COX-1) (ovine COX-1): 0% | % Inhibition (COX-2) (human recombinant COX-2): 0% | inhibition in vivo at 0.1 µmol/g [1, 5]: 54%

Compound: CC1(C)OC(c2ccc(S(C)(=O)=O)cc2)=C(c2ccccc2)C1=O [E-1, reference compound]
inhibition in vivo at 0.1 µmol/g [1, 5]: 57.7%

Compound: CC1(C)Oc2c(c3ccc(S(C)(=O)=O)cc3c3cc(F)ccc23)C1=O [x-2, 3-Fluoro-2′,2′-dimethyl-6-(methylsulfonyl)-phenanthro[9,10-b]furan-3′(2′H)-one]
inhibition in vivo at 0.1 µmol/g [1]: 40% | melting point: 242 to 244 °C

More lines, main results first:

IC50 (ovine COX-1): 28 µM | IC50 (human recombinant COX-2): 20 µM | melting point: 224 to 225 °C
Compound: CC1(C)OC(c2ccc(Cl)cc2)=C(c2ccc(S(N)(=O)=O)cc2)C1=O [1v, 5-(4′-Chlorophenyl)-2,2-dimethyl-4-[4′-(aminosulfonyl)phenyl]-furan-3(2H)-one]
inhibition in vivo at 0.1 µmol/g [1, 5]: 44.3%

% Inhibition (COX-1) (ovine COX-1): 80% | IC50 (ovine COX-1): 29 µM | % Inhibition (COX-2) (human recombinant COX-2): 6% | IC50 (human recombinant COX-2): > 50 µM | melting point: 223 to 225 °C
Compound: CC1(C)OC(c2ccc(Cl)cc2)=C(c2ccc(S(C)(=O)=O)cc2)C1=O [1k, 5-(4′-Chlorophenyl)-2,2-dimethyl-4-[4′-(methylsulfonyl)phenyl]-furan-3(2H)-one]
inhibition in vivo at 0.1 µmol/g [1, 5]: 50.6%

melting point: 204 to 205 °C
Compound: CNS(=O)(=O)c1ccc(C2=C(c3ccc(Cl)cc3)OC(C)(C)C2=O)cc1 [1vMe, 5-(4′-Chlorophenyl)-2,2-dimethyl-4-[4′-(methylaminosulfonyl)phenyl]-furan-3(2H)-one]

IC50 (MCF-7 cells [2]): 0.03 µM
Compound: O=c1[nH]cc(F)c(=O)[nH]1 [5-Fluorouracil, reference compound]

melting point: 158 to 160 °C
Compound: CC1(C)OC(c2ccccc2)=C(c2ccc(S(N)(=O)=O)cc2)C1=O [1q, 5-(4′-Phenyl)-2,2-dimethyl-4-[4′-(aminosulfonyl)phenyl]-furan-3(2H)-one]
inhibition in vivo at 0.1 µmol/g [1, 5]: 38%

IC50 (ovine COX-1): 22 µM | IC50 (human recombinant COX-2): 71 µM | melting point: 219 to 221 °C
Compound: CC1(C)OC(c2cccc(Cl)c2)=C(c2ccc(S(C)(=O)=O)cc2)C1=O [1o, 5-(3′-Chlorophenyl)-2,2-dimethyl-4-[4′-(methylsulfonyl)phenyl]-furan-3(2H)-one]
inhibition in vivo at 0.1 µmol/g [1, 5]: 50.7%

IC50 (ovine COX-1): 70 µM | IC50 (human recombinant COX-2): > 50 µM | melting point: 167 to 169 °C
Compound: CC1(C)OC(c2ccc(F)cc2)=C(c2ccc(S(N)(=O)=O)cc2)C1=O [1w, 5-(4′-Fluorophenyl)-2,2-dimethyl-4-[4′-(aminosulfonyl)phenyl]-furan-3(2H)-one]
inhibition in vivo at 0.1 µmol/g [1, 5]: 43.7%

melting point: 198 to 200 °C
Compound: CC1(C)OC(c2cccc(Cl)c2)=C(c2ccc(S(N)(=O)=O)cc2)C1=O [1u, 5-(3′-Chlorophenyl)-2,2-dimethyl-4-[4′-(aminosulfonyl)phenyl]-furan-3(2H)-one]
